Measured values published in PMC9032718, “Eltrombopag as an Allosteric Inhibitor of the METTL3-14 Complex Affecting the m^6A Methylation of RNA in Acute Myeloid Leukemia Cells” (Pharmaceuticals, 2022).

Experiments:
[1] = biological target: T1, METTL3-14 complex (Homo sapiens, UniProt Q86U44); test: Surface plasmon resonance binding to METTL3-14; conditions: SPR
T1 construct: genes encoding the full-length and MTase domain of human METTL3; METTL3-14 FL: full length of METTL3-14; 10x His (thrombin-cleavable) (cleaved yes); made in house; host or cells: Trichoplusia ni (Hi5) cells co-infected with two baculoviruses (virus made in Sf9)
Description: The interaction between eltrombopag and the METTL3-14 complex was explored using a Reichert […] instrument optical biosensor (Reichert Technologies, Depew, NY, USA) equipped with a carboxymethyl dextran sensor chip (part no. 13206066, Reichert Technologies). To activate the sensor chip, free carboxyl groups on the surface were modified by injecting a mixture of 0.1 M of 1-ethyl-3-(3-dimethylaminopropyl) carbodiimide hydrochloride and 0.05 M of N-hydroxysuccinimide at a flow rate of 10 μL/min to generate a reactive succinimide ester surface. […] The binding experiments were performed using a flow rate of 30 μL/min with an association time of 5 min and a dissociation time of 7 min. The regeneration of the surfaces was performed, when necessary, by 10 mM of NaOH. The Langmuir model of the Scrubber2 software was used to determine the equilibrium dissociation constant and kinetic dissociation and association constants.

[2] = biological target: T2, METTL3 (Homo sapiens, UniProt Q86U44); test: Bioluminescence enzyme assay, single form of METTL3; assay type: biochemical; conditions: 1 μM METTL3, 1 μM SAM, 500 nM RNA, 5 h; read-out: IC50, single subunit enzyme form of METTL3
T2 construct: 10x His (thrombin-cleavable); made in house; host or cells: insect cells, baculovirus (pVL1393)
Description: An enzymatic bioluminescence assay was established to identify the METTL3-14 inhibitor through screening. […] METTL3-14 activity was assessed by measuring the luminescence using a Victor multilabel reader (PerkinElmer, Waltham, MA, USA). The IC50 values were calculated by a nonlinear regression analysis using OriginPro 9.1 software (OriginLab).
To confirm the mechanism of action of eltrombopag in the METTL3-14 complex, 30 nM METTL3-14 and serially diluted eltrombopag were reacted with various concentrations of SAM or RNA substrate and saturating concentrations of the other substrate (3 μM SAM or 2 μM RNA substrate) for 20 min. To evaluate the inhibitory activity in a single form of METTL3 and METTL14, 1 μM of METTL3 and 300 nM of METTL14 were incubated with 1 μM of SAM, 500 nM of RNA substrates, and serially diluted eltrombopag for 5 h. To measure the inhibitory activity in the truncated form of the METTL3-14 complex, 1 μM of the truncated METTL3-14 complex was reacted with 1 μM of SAM, 500 nM of RNA substrates, and serially diluted eltrombopag for 5 h.

T1 sequence (Q86U44 whole entry, the tested form may be a part): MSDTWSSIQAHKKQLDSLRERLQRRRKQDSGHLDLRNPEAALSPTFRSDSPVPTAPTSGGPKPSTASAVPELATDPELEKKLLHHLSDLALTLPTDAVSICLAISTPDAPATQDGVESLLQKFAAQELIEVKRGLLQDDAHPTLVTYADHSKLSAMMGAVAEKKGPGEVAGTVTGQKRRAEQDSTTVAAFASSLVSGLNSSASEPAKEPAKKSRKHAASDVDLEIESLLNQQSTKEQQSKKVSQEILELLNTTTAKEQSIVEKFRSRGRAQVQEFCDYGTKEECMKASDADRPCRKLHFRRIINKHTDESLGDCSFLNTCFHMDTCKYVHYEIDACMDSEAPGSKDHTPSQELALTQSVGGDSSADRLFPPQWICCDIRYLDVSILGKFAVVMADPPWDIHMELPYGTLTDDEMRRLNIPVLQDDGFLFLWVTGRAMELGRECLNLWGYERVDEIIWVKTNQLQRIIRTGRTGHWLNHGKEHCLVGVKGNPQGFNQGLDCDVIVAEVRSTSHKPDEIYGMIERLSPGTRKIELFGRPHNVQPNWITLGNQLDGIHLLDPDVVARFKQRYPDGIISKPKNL
T1 sequence (Q9HCE5 whole entry partner, the tested form may be a part): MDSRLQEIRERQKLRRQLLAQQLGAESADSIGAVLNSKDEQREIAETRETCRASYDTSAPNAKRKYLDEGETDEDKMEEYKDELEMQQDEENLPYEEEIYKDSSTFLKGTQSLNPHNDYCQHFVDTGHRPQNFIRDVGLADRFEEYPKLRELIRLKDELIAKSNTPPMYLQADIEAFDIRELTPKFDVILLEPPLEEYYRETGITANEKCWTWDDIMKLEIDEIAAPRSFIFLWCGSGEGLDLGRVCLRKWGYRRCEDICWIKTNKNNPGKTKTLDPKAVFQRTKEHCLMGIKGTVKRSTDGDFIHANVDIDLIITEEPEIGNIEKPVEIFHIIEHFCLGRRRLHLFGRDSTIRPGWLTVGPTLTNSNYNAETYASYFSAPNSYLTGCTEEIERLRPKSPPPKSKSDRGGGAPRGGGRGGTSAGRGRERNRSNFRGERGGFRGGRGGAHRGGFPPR
T2 sequence (Q86U44 whole entry): as the sequence (Q86U44 whole entry, the tested form may be a part) above

## CC1=NN(c2ccc(C)c(C)c2)C(=O)/C1=N\Nc1cccc(-c2cccc(C(=O)O)c2)c1O [Eltrombopag]
[1]
  Ka (kinetic association constant): 492(4)
[1]; Langmuir model, read-out: KD (equilibrium dissociation constant)
  Kd: 13.2 µM
[2]
  IC50: 7.04 µM
